Biological target: bromo domain of SMARCA4 protein (Homo sapiens (Human), UniProt P40337+P51532)
Experiment: SMARCA4 bromodomain ternary binding TR-FRET assay (with VCB)
Conditions: with saturating VCB (5 μM); read-out: IC50 (SM4_T) ternary binding potency in SMARCA4 FRET assay
Experimental: Recombinant bromo domain of SMARCA4 protein, was purchased from Active Motif (31401). The inhibitory activity of compounds was evaluated in vitro using TR-FRET assay with white 384-well low volume microplate (PerkinElmer ProxiPlate Plus), in which the compound competes the same binding site with the ligand, and thus lead to dose-dependent TR-FRET signal reduction. The cooperativity of the compounds for ternary complex formation with E3 ligase was evaluated in the absence or presence of saturating concentrations of VCB. Testing compounds were dissolved in DMSO at 10 mM and tested in 9-point IC50 mode. The assay mixture was prepared by mixing SMARCA4 (20 nM final), biotinylated probe (25 nM final), and assay buffer or VCB (5 μM) in 1×AlphaLISA Epigenetics Buffer (PerkinElmer AL008F) with 1 mM TCEP. The compounds of interest in DMSO were added to each well in 3-fold serial dilution by dispenser (TECAN D300E). and incubate for 20 minutes at room temperature before addition of detection reagents, Lance Eu W1024 anti-6×His (0.6 nM final, PerkinElmer AD0110) and Streptavidin Surelight APC (6 nM final, PerkinElmer CR130-100). The plate was then sealed and further incubated at 4° C. overnight in dark, and then was read by Envision multimode plate reader (PerkinElmer, 2102-0010). The ratio of florescence signal at 665/620 was used in data analysis. Percentage inhibition was calculated by % inhibition=100×(FDMSO-F)/(FDMSO-FPC), in which FDMSO is DMSO control, and FPC is positive control. IC50 values were determined from dose response curve by fitting the percent inhibition against compound concentration using GraphPad Prism software.

Sequence of bromo domain of SMARCA4 protein (P51532 whole entry, looked up, the tested form may be a part): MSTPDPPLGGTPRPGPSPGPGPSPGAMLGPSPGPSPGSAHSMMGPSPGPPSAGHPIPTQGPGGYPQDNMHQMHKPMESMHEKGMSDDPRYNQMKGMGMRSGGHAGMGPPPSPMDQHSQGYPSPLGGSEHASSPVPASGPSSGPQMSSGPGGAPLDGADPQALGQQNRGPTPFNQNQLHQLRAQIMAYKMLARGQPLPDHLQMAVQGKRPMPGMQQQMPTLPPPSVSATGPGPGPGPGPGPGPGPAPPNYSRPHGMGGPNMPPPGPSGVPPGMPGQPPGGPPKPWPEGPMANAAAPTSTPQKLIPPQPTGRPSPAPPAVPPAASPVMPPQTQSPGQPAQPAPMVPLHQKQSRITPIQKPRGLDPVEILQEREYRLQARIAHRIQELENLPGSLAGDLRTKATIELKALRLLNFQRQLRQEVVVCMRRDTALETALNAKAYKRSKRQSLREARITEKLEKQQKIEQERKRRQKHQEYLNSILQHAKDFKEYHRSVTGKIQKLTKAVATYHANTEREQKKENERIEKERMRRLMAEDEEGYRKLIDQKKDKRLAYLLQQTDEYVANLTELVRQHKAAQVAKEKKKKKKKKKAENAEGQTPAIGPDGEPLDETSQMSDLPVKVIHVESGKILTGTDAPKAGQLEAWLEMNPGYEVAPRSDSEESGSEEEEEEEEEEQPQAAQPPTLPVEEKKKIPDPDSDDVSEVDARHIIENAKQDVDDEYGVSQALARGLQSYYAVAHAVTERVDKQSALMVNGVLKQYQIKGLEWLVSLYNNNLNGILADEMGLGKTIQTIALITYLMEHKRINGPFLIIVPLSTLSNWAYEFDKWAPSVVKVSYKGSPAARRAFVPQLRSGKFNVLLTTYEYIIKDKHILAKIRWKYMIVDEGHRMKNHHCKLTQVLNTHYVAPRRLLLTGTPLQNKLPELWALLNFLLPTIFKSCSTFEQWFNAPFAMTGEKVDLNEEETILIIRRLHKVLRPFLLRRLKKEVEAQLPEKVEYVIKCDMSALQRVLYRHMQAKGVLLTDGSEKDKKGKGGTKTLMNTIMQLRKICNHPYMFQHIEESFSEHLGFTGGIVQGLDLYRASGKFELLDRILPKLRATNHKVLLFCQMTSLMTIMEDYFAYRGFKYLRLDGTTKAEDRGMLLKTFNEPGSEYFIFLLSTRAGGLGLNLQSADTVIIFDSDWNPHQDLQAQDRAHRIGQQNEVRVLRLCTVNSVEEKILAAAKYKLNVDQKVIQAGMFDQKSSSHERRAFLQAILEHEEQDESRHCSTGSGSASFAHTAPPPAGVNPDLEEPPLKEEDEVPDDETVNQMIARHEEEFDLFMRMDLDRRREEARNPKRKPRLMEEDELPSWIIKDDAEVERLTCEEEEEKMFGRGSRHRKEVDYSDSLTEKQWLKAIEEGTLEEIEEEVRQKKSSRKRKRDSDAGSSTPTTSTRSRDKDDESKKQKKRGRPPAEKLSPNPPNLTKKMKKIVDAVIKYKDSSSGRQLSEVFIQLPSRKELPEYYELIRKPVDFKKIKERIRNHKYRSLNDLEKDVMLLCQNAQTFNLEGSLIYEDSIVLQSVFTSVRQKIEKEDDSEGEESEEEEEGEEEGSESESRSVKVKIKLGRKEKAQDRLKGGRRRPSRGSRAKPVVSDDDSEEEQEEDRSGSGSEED
Sequence of bromo domain of SMARCA4 protein (P40337 whole entry, looked up, the tested form may be a part): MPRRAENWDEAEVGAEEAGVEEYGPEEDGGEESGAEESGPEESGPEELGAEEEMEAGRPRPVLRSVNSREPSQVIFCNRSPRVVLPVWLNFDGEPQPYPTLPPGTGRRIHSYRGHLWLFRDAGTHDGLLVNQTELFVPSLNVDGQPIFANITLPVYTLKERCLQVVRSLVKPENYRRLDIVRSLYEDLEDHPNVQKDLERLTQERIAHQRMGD
Sequence of bromo domain of SMARCA4 protein (Q15370 whole entry partner, looked up, the tested form may be a part): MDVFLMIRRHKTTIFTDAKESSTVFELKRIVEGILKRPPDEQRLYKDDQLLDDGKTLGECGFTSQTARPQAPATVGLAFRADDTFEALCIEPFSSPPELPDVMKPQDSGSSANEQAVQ
Sequence of bromo domain of SMARCA4 protein (Q15369 whole entry partner, looked up, the tested form may be a part): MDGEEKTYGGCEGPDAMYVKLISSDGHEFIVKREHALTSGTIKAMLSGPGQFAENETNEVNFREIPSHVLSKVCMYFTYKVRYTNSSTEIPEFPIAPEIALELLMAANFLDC

SMILES: Cc1scnc1-c1ccc(CNC(=O)[C@@H]2C[C@@H](O)CN2C(=O)[C@@H](NC(=O)CN2CCN3c4cc(-c5ccccc5O)nnc4NCC3C2)C(C)(C)C)cc1 (single isomer, unassigned) [Example 2a]
- IC50: 100 to 1000 nM

SMILES: Cc1ncsc1-c1ccc([C@H](C)NC(=O)[C@@H]2C[C@@H](O)CN2C(=O)[C@@H](NC(=O)CN2CCN3c4cc(-c5ccccc5O)nnc4NCC3C2)C(C)(C)C)cc1 (single isomer, unassigned) [Example 1b]
- IC50: < 100 nM

SMILES: Cc1scnc1-c1ccc(CNC(=O)[C@@H]2C[C@@H](O)CN2C(=O)[C@@H](NC(=O)CN2CCN3c4cc(-c5ccccc5O)nnc4NCC3C2)C(C)(C)C)cc1 (single isomer, unassigned) [Example 2b]
- IC50: < 100 nM

Reference: patent US20240018158A1, “BRM TARGETING COMPOUNDS AND ASSOCIATED METHODS OF USE” (Prelude Therapeutics Incorporated, priority 2020, published 2024)
